The source made the active and inactive calls.
Experiments:
[1] = biological target: T1, Low molecular weight phosphotyrosine protein phosphatase (Homo sapiens, UniProt P24666); format: functional; details: read-out: IC50_Mean
T1 sequence (P24666 whole entry): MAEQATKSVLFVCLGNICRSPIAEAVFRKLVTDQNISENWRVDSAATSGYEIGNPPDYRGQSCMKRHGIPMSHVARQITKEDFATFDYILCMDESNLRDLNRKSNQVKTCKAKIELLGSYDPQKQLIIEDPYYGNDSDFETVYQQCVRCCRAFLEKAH

[2] = biological target: T1, Low molecular weight phosphotyrosine protein phosphatase; format: functional; details: read-out: IC50_Mean; remark: listed apart in the source
[3] = luciferase reporter signal reduction – luminescence, H4-C neuroglioblastoma cells, dose response (AID 2458); format: functional, cell-based;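 also: H4 neuroglioblastoma cells stably carrying a luciferase reporter gene fusion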
BJ [4] = experiment: cells; format: functional, cell-based; details: Homo sapiens
cells [5] = format: functional, cell-based
[6] = alpha-synuclein stem-loop translation blockers – luminescence, H4 neuroglioblastoma cells, dose confirmation, confirmation (AID 2454); format: functional, cell-based;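 also: H4 neuroglioblastoma cells carrying an alpha-synuclein 5'UTR luciferase reporter; potency for inhibition of the luciferase signal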
[7] = alpha-synuclein stem-loop luciferase translation blockers – H4 neuroglioma cells, luminescence, confirmation (AID 1988); format: functional, cell-based
BJ [8] = experiment: BJ-TERT fibroblast viability loss – cell-based, RAS-independent, luminescence, dose response (AID 1933); format: functional; details: Homo sapiens
[9] = DRD fibroblast viability loss – cell-based, non-viral oncogenic, luminescence, dose response (AID 1934); format: functional; details: Homo sapiens
[10] = biological target: T2, Nuclear receptor subfamily 0 group B member 1 (Homo sapiens, UniProt P51843); format: functional, cell-based;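 also: HEK293T cells transfected with SF-1 and DAX-1 plus StAR promoter luciferase reporter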
T2 sequence (P51843 whole entry): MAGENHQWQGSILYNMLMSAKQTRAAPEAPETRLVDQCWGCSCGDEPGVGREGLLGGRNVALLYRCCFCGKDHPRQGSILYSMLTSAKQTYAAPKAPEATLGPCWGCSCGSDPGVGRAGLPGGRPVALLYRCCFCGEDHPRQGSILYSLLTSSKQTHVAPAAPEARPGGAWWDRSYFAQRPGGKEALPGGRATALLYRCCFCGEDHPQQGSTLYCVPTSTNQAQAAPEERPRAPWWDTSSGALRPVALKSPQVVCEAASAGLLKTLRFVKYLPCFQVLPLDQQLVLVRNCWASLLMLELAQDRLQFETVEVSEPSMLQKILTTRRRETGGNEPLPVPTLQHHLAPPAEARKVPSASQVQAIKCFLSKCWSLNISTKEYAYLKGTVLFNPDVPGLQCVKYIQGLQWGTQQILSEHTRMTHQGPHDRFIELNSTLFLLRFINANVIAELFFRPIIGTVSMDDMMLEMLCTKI

BJ [11] = experiment: BJ-TERT-LT-ST fibroblast viability loss – cell-based, RAS-independent, luminescence, dose response (AID 1935); format: functional; details: Homo sapiens;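 also: BJ fibroblasts immortalized with TERT plus LT and ST oncogenes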
[12] = luciferase reporter signal suppression in cells – H4 neuroglioma cells, luminescence, dose response (AID 1990); format: functional, cell-based
cells [13] = format: functional, cell-based; remark: listed apart in the source
[14] = Luminescence Cell-Based Dose Response HTS to Identify Inhibitors of 5'UTR Stem-Loop Driven Prion Protein mRNA Translation in H4 Neuroglioblastoma Cells. [Related pubchem assays: 1827 (Project Summary), 1813 (Primary HTS)]; format: functional
[15] = viability loss in HeLa cells – cytotoxicity control for MgcRacGAP inhibitor project, dose response (AID 624300); format: functional
[16] = general cell-killing toxicity readout – plate reader, dry powder samples, cytotoxicity control for PAX8 inhibitor project, dose response (AID 743021); format: functional, cell-based
Paired box protein Pax-8 = Paired box protein Pax-8 (Homo sapiens, UniProt Q06710); experiment: PAX8 transcriptional activity inhibition in RMG-I – RMG-I cells, luciferase, cherry-pick, dose response (AID 687027); format: functional, cell-based;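 also: luciferase reporter driven by Pax8 target thyroperoxidase promoter measured by SteadyGlo luminescence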
Sequence of Paired box protein Pax-8 (Q06710 whole entry): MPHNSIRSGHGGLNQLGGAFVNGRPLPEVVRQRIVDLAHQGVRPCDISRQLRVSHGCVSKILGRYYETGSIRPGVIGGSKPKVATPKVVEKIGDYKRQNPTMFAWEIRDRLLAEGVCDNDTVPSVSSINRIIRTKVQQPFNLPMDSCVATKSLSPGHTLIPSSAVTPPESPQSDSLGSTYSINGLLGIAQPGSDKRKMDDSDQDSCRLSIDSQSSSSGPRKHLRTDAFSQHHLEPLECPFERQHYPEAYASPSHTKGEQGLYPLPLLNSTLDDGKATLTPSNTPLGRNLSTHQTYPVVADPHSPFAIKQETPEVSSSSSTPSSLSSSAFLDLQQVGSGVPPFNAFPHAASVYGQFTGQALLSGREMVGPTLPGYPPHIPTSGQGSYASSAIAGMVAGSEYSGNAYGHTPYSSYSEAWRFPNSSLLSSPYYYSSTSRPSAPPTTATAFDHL

[17] = biological target: T3, DNA repair protein RAD52 homolog (Homo sapiens, UniProt P43351); format: functional, biochemical
T3 sequence (P43351 whole entry): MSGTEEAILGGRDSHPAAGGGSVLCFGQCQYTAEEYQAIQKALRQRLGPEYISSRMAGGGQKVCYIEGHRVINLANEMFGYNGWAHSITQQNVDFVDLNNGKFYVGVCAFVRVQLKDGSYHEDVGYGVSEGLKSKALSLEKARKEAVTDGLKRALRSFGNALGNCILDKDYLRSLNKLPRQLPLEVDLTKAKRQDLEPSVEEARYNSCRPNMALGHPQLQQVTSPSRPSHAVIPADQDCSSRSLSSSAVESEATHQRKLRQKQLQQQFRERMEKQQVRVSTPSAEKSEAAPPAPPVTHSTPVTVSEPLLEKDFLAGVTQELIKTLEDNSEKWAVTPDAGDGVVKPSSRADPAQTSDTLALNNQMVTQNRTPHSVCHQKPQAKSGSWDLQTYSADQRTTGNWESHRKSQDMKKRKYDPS

[18] = activation of miR-122 Renilla sensor silencing – cell-based, Huh7 psiCHECK-miR122, Renilla luciferase, cherry-picked, dose response (AID 651956); format: functional;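 also: huh7 hepatoma cells stably carrying a psiCHECK-2 miR-122 sensor plasmid; renilla luciferase signal reporting endogenous miR-122 activity after 48 h compound exposure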
[19] = biological target: Photoreceptor-specific nuclear receptor (Homo sapiens, UniProt Q9Y5X4); format: functional, cell-based;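 also: CHO-S cells with Gal4-NCOR and VP16-NR2E3 two-hybrid luciferase reporter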
Sequence of Photoreceptor-specific nuclear receptor (Q9Y5X4 whole entry, the tested form may be a part): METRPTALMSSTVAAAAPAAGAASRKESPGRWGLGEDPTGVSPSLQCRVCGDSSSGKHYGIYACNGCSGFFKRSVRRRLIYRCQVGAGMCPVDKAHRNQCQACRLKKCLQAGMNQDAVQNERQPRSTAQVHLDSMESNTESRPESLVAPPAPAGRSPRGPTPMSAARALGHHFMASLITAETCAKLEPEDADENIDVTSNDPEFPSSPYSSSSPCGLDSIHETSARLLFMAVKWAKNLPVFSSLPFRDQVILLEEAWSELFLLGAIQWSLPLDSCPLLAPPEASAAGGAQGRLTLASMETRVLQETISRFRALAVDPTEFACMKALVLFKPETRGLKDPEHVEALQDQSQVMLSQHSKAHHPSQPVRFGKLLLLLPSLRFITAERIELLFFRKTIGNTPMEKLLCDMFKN

[20] = Luminescence Cell-Based Dose Retest to Confirm Inhibitors of Cancer Stem Cells. [Related pubchem assays (depositor defined):AID2717, AID2721]; format: functional; details: Homo sapiens
[21] = viability of HCT116 lacking mutant beta-catenin – cell-based, human colon tumor, dose response (AID 1045); format: functional;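 also: HCT116 colon tumor cells with beta catenin knocked out; cells exposed to compound for 60 hours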
[22] = viability of PTEN-deleted HCT116 cells – cell-based, HCT116 PTEN knockout, dose response (AID 1047); format: functional;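 also: HCT116 colon tumor cells with PTEN knocked out; cells exposed to compound for 60 hours before readout; potency for loss of cell viability measured by luminescence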
[23] = biological target: T4, Hepatocyte nuclear factor 4-alpha (Homo sapiens, UniProt P41235); format: functional, cell-based;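 also: biochemical luminescence-based dose-response counterscreen measuring inhibition of HNF4 dimerization, run alongside a screen for blockers of ABHD5–perilipin-5 interaction; split luciferase complementation of HNF4 fusion proteins in cell lysate measuring dimerization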
T4 sequence (P41235 whole entry): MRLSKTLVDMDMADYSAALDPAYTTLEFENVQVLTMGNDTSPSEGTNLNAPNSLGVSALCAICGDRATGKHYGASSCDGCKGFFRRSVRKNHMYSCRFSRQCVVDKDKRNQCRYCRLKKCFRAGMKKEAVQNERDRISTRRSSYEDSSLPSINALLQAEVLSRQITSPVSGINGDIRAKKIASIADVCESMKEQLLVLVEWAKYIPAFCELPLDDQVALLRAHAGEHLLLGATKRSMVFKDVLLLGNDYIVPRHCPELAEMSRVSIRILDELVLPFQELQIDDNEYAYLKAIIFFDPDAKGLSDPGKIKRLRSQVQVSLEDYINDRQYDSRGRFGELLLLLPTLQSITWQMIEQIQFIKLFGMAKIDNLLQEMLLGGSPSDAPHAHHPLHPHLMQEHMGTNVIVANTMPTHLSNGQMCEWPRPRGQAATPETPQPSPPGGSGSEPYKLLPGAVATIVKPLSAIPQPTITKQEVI

Compound: CN1CCc2c(sc(/N=C/c3c[nH]c4ccccc34)c2C(N)=O)C1
- IC50 [1]: 57.2 µM (inactive)
- IC50 [2]: > 80 µM (inactive)

Compound: CCOC(=O)CSC1=C(C#N)C(c2ccc(C)o2)CC(=O)N1 (centres undefined)
- EC50 [3]: 0.961 µM (active)
- EC50 (BJ [4]): 14.9 µM (active)
- EC50 (cells [5]): 1.56 µM (active)
- EC50 [6]: > 12 µM (inconclusive)
- EC50 [7]: < 0.1 µM (active)
- EC50 (BJ [8]): 1.31 µM (active)
- EC50 [9]: 1.04 µM (active)
- IC50 [10]: > 67.6 µM (inactive)
- EC50 (BJ [11]): 1.36 µM (active)
- EC50 [12]: 2.61 µM (active)
- IC50 (cells [13]): > 67.6 µM (inactive)
- EC50 [14]: 0.894 µM (active)

Compound: COc1ccc2cc(CNCCOCCOCCNCc3ccc4cc(OC)ccc4c3)ccc2c1
- CC50 [15]: 9.1 µM (active)
- AC50 [16]: 20.3 µM (active)
- AC50 (Paired box protein Pax-8): 19.1 µM (active)
- AC50 [17]: 2.45 µM (active)

Compound: COC(=O)C[C@@H]1CC[C@@H]2[C@H](COc3ccc(NC(=O)Nc4cccc(F)c4)cc3C(=O)N2C)O1
- AC50 [18]: 40.1 µM (active)

Compound: Cc1sc(NC(=O)/C=C/c2ccc3c(c2)OCO3)nc1-c1ccccc1
- IC50 [19]: 7.04 µM (active)

Compound: O=C/C(=N\Nc1ccc(Cl)cc1)C(=O)c1ccncc1
- AC50 [20]: 5.23 µM (active)
- EC50 [21]: 42.2 µM (active)
- EC50 [22]: 116 µM (active)
- IC50 [23]: 28.9 µM (inactive)

Reference: ChEMBL document CHEMBL1201862, “PubChem BioAssay data set” (2004)
